Reference: patent publication US20240327433A1, “PYRIMIDOPYRAN COMPOUND” (Medshine Discovery Inc., priority 2021, published 2024)
pIC50: −log10 of the molar value. Structures can show the parent of a compound that is named as a salt.

Columns and labels:
[1] = PPB assay: recovery rate in the dialysis device (five species plasma); type: in vitro ADME; conditions: CD-1 (mouse), Sprague-Dawley (rat), Beagle (dog), cynomolgus monkey, human
Procedure: (§1) The protein binding rates of the compound in the plasma of CD-1 mouse, Sprague-Dawley rat, Beagle dog, cynomolgus monkey and human were determined by equilibrium dialysis method. The plasmas of the above-mentioned five species were formulated to plasma samples with a compound concentration of 2 μM. The plasma samples were placed in a 96-well rapid equilibrium dialysis device, and dialyzed against phosphate buffered saline at 37±1° C. for 4 h. In this assay, warfarin was used as a control compound. The concentrations of analytes in plasma and dialysis buffer were determined by LC-MS/MS mothed.

[2] = Plasma protein binding (PPB), equilibrium dialysis, Sprague-Dawley rat plasma; type: in vitro ADME; conditions: 2 μM, unbound rate
Procedure: (§2) The protein binding rates of the compound in the plasma of CD-1 mouse, Sprague-Dawley rat, Beagle dog, cynomolgus monkey and human were determined by equilibrium dialysis method.
as §1, with “The” for “The protein binding rates of the compound in the plasma of CD-1 mouse, Sprague-Dawley rat, Beagle dog, cynomolgus monkey and human were determined by equilibrium dialysis method. The”

[3] = Plasma protein binding (PPB), equilibrium dialysis, human plasma; type: in vitro ADME; conditions: 2 μM, unbound rate
Procedure: as §2
as §1, with “The” for “The protein binding rates of the compound in the plasma of CD-1 mouse, Sprague-Dawley rat, Beagle dog, cynomolgus monkey and human were determined by equilibrium dialysis method. The”

[4] = system: xenograft tumor of human colon cancer GP2D; test: Pharmacodynamics in vivo: Balb/c nude mouse subcutaneous xenograft of human colon cancer GP2D cells; conditions: PO, BID*20, 20th day
Procedure: A Balb/c nude mouse model of subcutaneously xenograft tumor of human colon cancer GP2D cell was established. 0.2 mL (2×10^6) of GP2D cells (Matrigel was added, and volume ratio was 1:1) were inoculated subcutaneously on the right back of each mouse. When the average tumor volume reached 149 mm^3, the administration was started by group, with 6 mice in each group. On the day of the assay, the animals were administered the corresponding drugs according to the corresponding groups. The first group G1 was set as a negative control group, which was given 5% DMSO+95%(10% HP-β-CD) alone by gavage administration. The second group G2 to the fourth group G4 were given compound 1 hydrochloride, and the dosage and protocol of administration were shown in Table 13.
During the assay, the body weight of animals and the tumor size were measured twice a week. Meanwhile clinical symptoms of animals were observed and recorded every day. Each administration was referenced to the most recent body weight of animals.
The length (a) and width (b) of a tumor were measured with a digital vernier caliper. The calculation formula of tumor volume (Tumor volume, TV) was: TV=a×b^2/2.

[5] = Plasma protein binding (PPB), equilibrium dialysis, Beagle dog plasma; type: in vitro ADME; conditions: 2 μM, unbound rate
Procedure: as §2
as §1, with “The” for “The protein binding rates of the compound in the plasma of CD-1 mouse, Sprague-Dawley rat, Beagle dog, cynomolgus monkey and human were determined by equilibrium dialysis method. The”

KRAS^G12D GP2D = test: Anti-cell proliferation effect in tumor cell line GP2D (CellTiter-Glo 3D); type: cell-based; conditions: 120 hours
Procedure: In this assay, the effect of the compounds on inhibiting cell proliferation was studied by detecting the effect of the compounds on the cell activity in vitro in the tumor cell lines AsPC-1 and GP2D.
The tumor cell lines were cultured in a 37° C., 5% CO2 incubator according to the culture conditions indicated in the culture method. Cells were passaged regularly, and cells in logarithmic growth phase were used for plating.
Cells were stained with trypan blue and viable cells were counted.
The cell concentration was adjusted to an appropriate concentration.
To each well of a ULA culture plate was added 135 μL of cell suspension. To the blank control well was added the same volume of culture medium without cells.
After plating, the ULA culture plate was immediately centrifuged at room temperature at 1000 rpm for 10 minutes. Note: After completion of the centrifugation, subsequent operations must be processed carefully to avoid unnecessary shocks.
The culture plate was incubated in a 37° C., 5% CO2, 100% relative humidity incubator overnight.
10× compound working solution (10× working solution in DMSO) was formulated, and then to the ULA culture plate was add 15 μL of 10× compound working solution, and to the vehicle control and blank control was added 15 μL of DMSO-cell culture medium mixture, respectively. […]
The luminescent signal was detected on a 2104 EnVision plate reader. […]

p-ERK in GP2D cells = test: Assay of p-ERK inhibition in GP2D cells (HTRF); type: cell-based; conditions: 1 hour incubation
Procedure: The cell plate was inoculated in a carbon dioxide incubator at 37° C. overnight; • 2) 2 μL of the compound was weighed and added to 78 μL of the cell medium. After the mixture was mixed thoroughly, 20 μL of the solution of compound was weighed and added to the corresponding well of the cell plate. The cell plate was placed back to the carbon dioxide incubator and incubated for another 1 hour; • 3) After completion of the incubation, the cell supernatant was discarded. 50 μL of 1× cell lysate was added to each well. The mixture was incubated with shaking at room temperature for 30 minutes; • 4) Phospho-ERK1/2 Eu Cryptate antibody and Phospho-ERK1/2 d2 antibody were diluted 20-fold with detection buffer; • 5) 16 μL of cell lysate supernatant was weighed and added into each well of a new 384 white microwell plate, and then 2 μL of the diluted solution of Phospho-ERK1/2 Eu Cryptate antibody and 2 μL of the diluted solution of Phospho-ERK1/2 d2 antibody dilution were added. The mixture was incubated at room temperature for at least 4 hours; • 6) After completion of the incubation, HTRF was read with multi-label analyzer: excitation: 320 nm, emission: 615 nm, 665 nm; • 7). IC50 of the compounds to be assayed was calculated.

Cc1cc(N)c(F)c(C2Cc3nc(OC[C@@]45CCCN4C[C@H](F)C5)nc(N4CC5CCC(C4)N5)c3CO2)c1C(F)(F)F (stereo partly drawn) [Compound 1 hydrochloride]
recovery at 4 h, 2 μM [1]: 82.4 to 110% | Unbound PPB R [2]: 3.0% | Unbound PPB H [3]: 7.0% | Tumor volume inhibition rate TGI (%) ([4]; G2, 3 mg/kg): 19.4% | Tumor volume inhibition rate TGI (%) ([4]; G3, 10 mg/kg): 53.9% | Tumor volume inhibition rate TGI (%) ([4]; G4, 30 mg/kg): 83.7% | Unbound PPB D [5]: 5.2% | pIC50 (KRAS^G12D GP2D): 7.43 | pIC50 (p-ERK in GP2D cells): 9.10
